The target in one assay is human JAK3 (aa 795-1124) (Homo sapiens, UniProt P52333). As to the kind of experiment: In vitro JAK kinase assay (TR-FRET), JAK3. On the technique in general: In TR-FRET formats the signal depends on donor and acceptor labels being close together.
For the next assay, the target named is human JAK1 (aa 850-1154) (Homo sapiens, UniProt P23458). As to the kind of experiment: In vitro JAK kinase assay (TR-FRET), JAK1.
The target in another assay is human JAK2 (aa 826-1132) (Homo sapiens, UniProt O60674). The assay is described as follows: In vitro JAK kinase assay (TR-FRET), JAK2.

As usually defined, the IC50 is the concentration needed to halve the response being measured. Low values mean higher potency, high ones lower potency.

Chain of human JAK3 (aa 795-1124) (P52333 795-1124): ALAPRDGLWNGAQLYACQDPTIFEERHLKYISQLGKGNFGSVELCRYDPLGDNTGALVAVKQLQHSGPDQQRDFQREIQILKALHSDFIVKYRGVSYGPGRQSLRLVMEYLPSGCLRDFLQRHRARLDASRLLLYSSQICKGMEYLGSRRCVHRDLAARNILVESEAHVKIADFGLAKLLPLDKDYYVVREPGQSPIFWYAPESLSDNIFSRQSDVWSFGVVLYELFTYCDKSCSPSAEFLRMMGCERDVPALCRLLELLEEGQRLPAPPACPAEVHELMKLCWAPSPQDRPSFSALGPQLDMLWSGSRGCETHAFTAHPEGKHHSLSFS
Chain of human JAK1 (aa 850-1154) (P23458 850-1154): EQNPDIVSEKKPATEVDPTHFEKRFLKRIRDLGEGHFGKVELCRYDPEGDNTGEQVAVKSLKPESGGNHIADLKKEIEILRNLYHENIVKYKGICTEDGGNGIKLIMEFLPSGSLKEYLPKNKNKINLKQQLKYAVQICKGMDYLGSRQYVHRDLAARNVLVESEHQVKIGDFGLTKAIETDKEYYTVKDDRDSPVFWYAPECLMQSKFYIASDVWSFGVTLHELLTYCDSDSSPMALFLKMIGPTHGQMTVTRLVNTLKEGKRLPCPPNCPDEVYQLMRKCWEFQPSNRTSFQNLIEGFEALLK
Chain of human JAK2 (aa 826-1132) (O60674 826-1132): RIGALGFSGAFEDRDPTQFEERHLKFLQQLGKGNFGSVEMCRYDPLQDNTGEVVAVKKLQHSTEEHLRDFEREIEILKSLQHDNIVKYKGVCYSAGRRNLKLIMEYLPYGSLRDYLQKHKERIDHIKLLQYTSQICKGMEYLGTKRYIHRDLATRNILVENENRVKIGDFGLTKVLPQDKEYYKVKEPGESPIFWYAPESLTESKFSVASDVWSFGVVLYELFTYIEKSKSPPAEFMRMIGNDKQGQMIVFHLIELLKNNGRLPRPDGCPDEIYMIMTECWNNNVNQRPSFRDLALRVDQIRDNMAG
Protocol for human JAK1 (aa 850-1154): (§1) The enzymatic activity was assayed using as substrate a biotinylated peptide, poly (GT)-Biotin (CisBio). […] The degree of phosphorylation was detected by TR-FRET (time-resolved fluorescence energy transfer). […] The enzymatic reactions took place for 30 minutes at room temperature. […] Incubate for 3 h and read on Victor 2V spectrofluorometer (PerkinElmer) set to read fluorescence resonance energy transfer.
Protocol for human JAK2 (aa 826-1132): as §1
Protocol for human JAK3 (aa 795-1124): as §1

As for `O=c1[nH]c2cnc(-c3cnc4ccc(F)cn34)nc2n1[C@H](CO)c1ccc(F)cn1` [Example 35, (S)-2-(6-Fluoroimidazo[1,2-a]pyridin-3-yl)-9-(1-(5-fluoropyridin-2-yl)-2-hydroxyethyl)-7H-purin-8(9H)-one], the IC50 against human JAK3 (aa 795-1124) is 100 to 1000 nM; at human JAK1 (aa 850-1154) it was 100 to 1000 nM; on human JAK2 (aa 826-1132) it was under 100 nM.

Turning to `O=c1[nH]c2cnc(-c3cnn4ccncc34)nc2n1CC1CCOCC1` [Example 80, 2-(Pyrazolo[1,5-a]pyrazin-3-yl)-9-((tetrahydro-2H-pyran-4-yl)methyl)-7H-purin-8(9H)-one], the IC50 against human JAK3 (aa 795-1124), on human JAK1 (aa 850-1154) and against human JAK2 (aa 826-1132) was 100 to 1000 nM each time.

Consider `N#CC1(n2c(=O)[nH]c3cnc(-c4cnc5ccc(F)cn45)nc32)CCCCC1` [Example 36, 1-(2-(6-Fluoroimidazo[1,2-a]pyridin-3-yl)-8-oxo-7H-purin-9(8H)-yl)cyclohexane carbonitrile], for which the IC50 at human JAK3 (aa 795-1124) was 100 to 1000 nM; at human JAK1 (aa 850-1154), over 1000 nM; against human JAK2 (aa 826-1132), under 100 nM.

With `O=c1[nH]c2cnc(-c3cnn4cc(F)ccc34)nc2n1C1CCOCC1` [Example 89, 2-(6-Fluoropyrazolo[1,5-a]pyridin-3-yl)-9-(tetrahydro-2H-pyran-4-yl)-7H-purin-8(9H)-one], the results for the IC50 against human JAK3 (aa 795-1124), at human JAK1 (aa 850-1154) and against human JAK2 (aa 826-1132) were under 100 nM, over 1000 nM and under 100 nM, respectively.

For `CS(=O)(=O)N1CCC(n2c(=O)[nH]c3ccc(-c4cnc5ccc(F)cn45)nc32)CC1` [Example 71, 5-(6-Fluoroimidazo[1,2-a]pyridin-3-yl)-3-[1-(methylsulfonyl)piperidin-4-yl]-1,3-dihydro-2H-imidazo[4,5-b]pyridin-2-one], the figures for the IC50 at human JAK3 (aa 795-1124), at human JAK1 (aa 850-1154) and against human JAK2 (aa 826-1132) were under 100 nM, over 1000 nM and under 100 nM, respectively.

Consider `O=c1[nH]c2cnc(-c3cnn4ccncc34)nc2n1C1CCC(F)(F)CC1` [Example 81, 9-(4,4-Difluorocyclohexyl)-2-(pyrazolo[1,5-a]pyrazin-3-yl)-7H-purin-8(9H)-one], for which the IC50 on human JAK3 (aa 795-1124), at human JAK1 (aa 850-1154) and on human JAK2 (aa 826-1132) was under 100 nM throughout.

`CS(=O)(=O)N1CCC[C@@H](n2c(=O)[nH]c3cnc(-c4cnc5ccc(F)cn45)nc32)C1` [Example 62, 2-(6-Fluoroimidazo[1,2-a]pyridin-3-yl)-9-[(3R)-1-(methylsulfonyl)piperidin-3-yl]-7,9-dihydro-8H-purin-8-one]: the IC50 against human JAK3 (aa 795-1124) is 100 to 1000 nM; on human JAK1 (aa 850-1154) it was over 1000 nM; against human JAK2 (aa 826-1132) it was under 100 nM.

As to `C[C@@H]1CCCC[C@@H]1n1c(=O)[nH]c2cnc(-c3cnc4ccc(C#N)cn34)nc21` [Example 3, 3-(9-((1S,2R)-2-Methylcyclohexyl)-8-oxo-8,9-dihydro-7H-purin-2-yl)imidazo[1,2-a]pyridine-6-carbonitrile], the half-maximal inhibitory concentration (IC50) at human JAK1 (aa 850-1154) is 100 to 1000 nM.

For the compound `CC1(C)CC(n2c(=O)[nH]c3cnc(-c4cnc5ccc(F)cn45)nc32)c2cccnc2O1` (stereo not shown) [Example 42, 9-(2,2-Dimethyl-3,4-dihydro-2H-pyrano[2,3-b]pyridin-4-yl)-2-(6-fluoroimidazo[1,2-a]pyridin-3-yl)-7H-purin-8(9H)-one], the IC50 was 100 to 1000 nM against human JAK3 (aa 795-1124), over 1000 nM on human JAK1 (aa 850-1154) and 100 to 1000 nM at human JAK2 (aa 826-1132).

As for `O=c1[nH]c2c(N3CCNCC3)nc(-c3cnc4ccc(F)cn34)nc2n1C1CCOCC1` [Example 98, 2-(6-Fluoroimidazo[1,2-a]pyridin-3-yl)-6-(piperazin-1-yl)-9-(tetrahydro-2H-pyran-4-yl)-7H-purin-8(9H)-one], the figures for the IC50 on human JAK3 (aa 795-1124), on human JAK1 (aa 850-1154) and against human JAK2 (aa 826-1132) were under 100 nM, over 1000 nM and under 100 nM, respectively.

For the compound `O=c1[nH]c2cnc(-c3cnn4cccnc34)cc2n1C1CCOCC1` [Example 92, 6-(Pyrazolo[1,5-a]pyrimidin-3-yl)-1-(tetrahydro-2H-pyran-4-yl)-1H-imidazo[4,5-c]pyridin-2(3H)-one], the values for the IC50 on human JAK3 (aa 795-1124), against human JAK1 (aa 850-1154) and against human JAK2 (aa 826-1132) were 100 to 1000 nM, 100 to 1000 nM and under 100 nM, respectively.

Consider `C[C@H](c1ccc(F)cn1)n1c(=O)[nH]c2cnc(-c3cnn4ccncc34)nc21` [Example 79, (R)-9-(1-(5-Fluoropyridin-2-yl)ethyl)-2-(pyrazolo[1,5-a]pyrazin-3-yl)-7H-purin-8(9H)-one], for which the IC50 on human JAK3 (aa 795-1124), on human JAK1 (aa 850-1154) and against human JAK2 (aa 826-1132) was under 100 nM each time.

Take `O=c1[nH]c2cc(F)c(-c3cnc4ccc(F)cn34)nc2n1C1CCOCC1` [Example 73, 6-Fluoro-5-(6-fluoroimidazo[1,2-a]pyridin-3-yl)-3-(tetrahydro-2H-pyran-4-yl)-1,3-dihydro-2H-imidazo[4,5-b]pyridin-2-one]: the IC50 against human JAK3 (aa 795-1124) is under 100 nM; on human JAK1 (aa 850-1154), 100 to 1000 nM; against human JAK2 (aa 826-1132) it was under 100 nM.

As for `C[C@H](CC(N)=O)n1c(=O)[nH]c2cnc(-c3cnc4ccc(F)cn34)nc21` [Example 58, (R)-3-(2-(6-Fluoroimidazo[1,2-a]pyridin-3-yl)-8-oxo-7H-purin-9(8H)-yl)butanamide], the IC50 was 100 to 1000 nM against human JAK3 (aa 795-1124), over 1000 nM against human JAK1 (aa 850-1154) and 100 to 1000 nM against human JAK2 (aa 826-1132).

The values are drawn from patent US20130089512A1, “HETEROARYL IMIDAZOLONE DERIVATIVES AS JAK INHIBITORS” (priority 2010, published 2013).
